The values below come from patent US8241393B2, “Methods and articles for gold nanoparticle production” (The Curators of the University of Missouri, priority 2005, dated 2012).

The structures appear in SMILES notation.

The series is described as follows: Stabilization/storage of gold nanoparticles by exposure to a phosphino amino acid. It counts as physicochemical. From the text:
In addition to tuning particle size, an important purpose of stabilizers is to prevent agglomeration and/or oxidation of the gold nanoparticles during storage. All of the stabilizers identified above have been discovered to provide beneficial stability for gold nanoparticles produced through methods of the invention. […] Carbohydrates are an additional stabilizer discovered to be useful with practice of methods of the invention. More than one stabilizer may be employed. Any selected stabilizer can be added at any time during the synthesis of the nanoparticles. Preferably, the stabilizer is present in solution prior to introduction of the final reactant (i.e., one or both of gold salt and phosphino amino acid are added to a solution that already contains a stabilizer).
Still additional example methods of the invention are directed to methods for storing and/or stabilizing gold nanoparticles. It has been discovered the use of phosphino amino acids, with TAAC being a preferred example, provide beneficial levels of stability for storing gold nanoparticles. In an example method of the invention, gold nanoparticles (that may have been, for example, produced through a method other than one of the present invention) are exposed to a phosphino amino acid such as TAAC to prevent their agglomeration.

Consider `CC(NCP(CNC(C)C(=O)O)CNC(C)C(=O)O)C(=O)O` (centres unmarked) [TAAC, trimeric alanine phosphine conjugate], for which the “protection of gold nanoparticles from oxidation” value is “help “protect” gold nanoparticles from oxidation”. Also, the “prevention of agglomeration of gold nanoparticles” value (over periods of 7, 14 and even 30 days) is recorded as “substantially prevent agglomeration”.
